Experiment: gradient 5% acetonitrile 3 min, to 50% in 2 min, to 85% in 15 min, held 3 min, 100 µL/min
Settings: column: Zorbax Extend-C18 2.1 x 50 mm; eluents: water / acetonitrile, 0.1% formic acid
Method in brief: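 Pure standards were analyzed in mixtures of ~100 molecules using HPLC coupled to a quadrupole time-of-flight mass spectrometer, in both positive and negative ionization mode. Separation used a Zorbax Extend-C18 column (2.1 × 50 mm, 1.8 μm) at 100 μL/min, with water and acetonitrile each containing 0.1% formic acid. Dead and dwell volumes were 40 μL and 900 μL, and data were collected over 3 months. Retention time was read from computationally picked adduct peaks, each inspected manually.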

SMILES	RP-LC retention time [s]
Cc1ccc2[nH]cc(CCNC(=O)CS(=O)Cc3cnn(-c4ccccc4)c3-n3cccc3)c2c1 (centres undefined)	875
CC(C)c1ccc(-n2nc(N3CCN(C(=O)CCC(=O)N4CCOCC4)CC3)ccc2=O)cc1	695
CNC(=O)[C@@H]1CN(C(=O)Cc2ccc(Br)cc2)C[C@H]1CO	604
COc1ccc(S(=O)(=O)N2CCC(c3noc(-c4cccc(F)c4)n3)CC2)cc1	1100
CCSc1nc2ncc(-c3ccnc(N4CCN(C)CC4)n3)c(C)n2n1	808
COC(=O)c1cc(C2CC2)nc2c1c(=O)n(Cc1ccc(C)cc1)c(=O)n2C	1160
CCCCn1cc(S(=O)(=O)Nc2cc(F)ccc2C)c2cccnc21	995
Cc1ccc(CNC(=O)C2CCCN(C(=O)c3[nH]c(C)c(C(=O)OC(C)C)c3C)C2)cc1 (centres undefined)	893
CCOc1cc(-c2nc(C3CC(=O)N(c4ccc(C)cc4)C3)no2)cc(OCC)c1OCC (centres undefined)	1150
CCCOc1nn(CCC)cc1C(=O)NCc1ccccc1Cl	1010
Cc1ccc(CNC(=O)c2cc(NC(=O)C(C)C)cc3nc(C)ccc23)cc1	680
O=S(=O)(Cc1ccccc1Cl)N(CCc1cccs1)Cc1ccco1	1080
CC1CCN(C(=O)C2CCN(S(=O)(=O)c3ccc(-c4noc(C5CC5)n4)cc3)CC2)CC1	1040
CCc1cccc(NC(=O)Cc2cn3cc(F)ccc3n2)c1	638
Cc1ccc(-c2noc(CCN3CCN(C)CC3)n2)cc1	630
COc1ccc(NC(=O)CN2CCc3[nH]c4c(C)cc(C)cc4c(=O)c3C2)cc1OC	922
O=C(CN1C(=O)CCc2cc(Br)ccc21)Nc1ccccn1	761
Cc1cc(C(=O)N2C[C@@H](F)C[C@H]2C(=O)N2CCc3ccccc3C2)n(C)n1	683
CCn1cc(-c2ccc(F)cc2)cc1C(=O)O	861
CC1=C(c2ccccc2)S(=O)(=O)N=C1N1CCCN(C(=O)NCc2ccccc2)CC1	843
Cc1ccsc1C(=O)NCC12CCCC=C1N(C)C(=O)CC2 (centres undefined)	785
CN1CCN(S(=O)(=O)c2ccc3nn(Cc4c(F)cccc4Cl)c(=O)n3c2)CC1	642

SMILES	RP-LC retention time [s]
Cc1csc(COc2ccc(C(=O)Nc3ccc4cn[nH]c4c3)cc2)n1	711
Cn1c(-c2cccc(C(=O)NCc3ccc(F)cc3F)c2)nc2cccnc21	743
O=c1c2cc3c(cc2nc(SCc2nc(-c4ccc(F)cc4)no2)n1Cc1ccncc1)OCO3	799
c1ccc(-n2nnc(-c3noc(-c4cccnc4)n3)c2-c2ccncc2)cc1	737
O=C(CCC(=O)N1CC2CCCN2c2ccccc21)NCCCN1CCCCC1 (centres undefined)	646
Cc1cccc(NC(=O)CN2C(=O)C3CCCCN3c3ccc(S(=O)(=O)N(C)C)cc32)c1 (centres undefined)	607
O=C(CSc1nnc(-c2ccc3c(c2)OCCO3)o1)N1CCN(c2ccccc2)CC1	850
CCCCCn1c(=O)c2ccccc2n(Cc2nc(-c3ccc(Cl)c(F)c3)no2)c1=O	659
COc1ccc(Cl)cc1S(=O)(=O)N1CCCC(C(=O)NCCCOC(C)C)C1 (centres undefined)	855
Cc1cc(Nc2ncccc2S(N)(=O)=O)ccc1Cl	908
COc1ccc(CNc2c(C(=O)OC(C)C)cnc3nc(C)ccc23)cc1	740
CC(=O)N1c2ccc(S(=O)(=O)N3CCCC3)cc2CC1C(=O)NCCCN1CCCCCC1 (centres undefined)	619
O=C(NC1CC1)C1CCN(S(=O)(=O)c2ccc3[nH]c4c(c3c2)CCCCC4)CC1	862
O=C(Nc1cnc(N2CCCC2)c(C(=O)O)c1)c1ccc(Cl)cc1	631
Cc1cc(-c2nnc(C3CC3)o2)c(C)n1CC(=O)NCc1ccc(F)cc1	784
CC(C)NC(=O)NCCN1CCN(c2ccccc2)CC1	569
CC(C)c1ccc(NC(=O)C2CCCN(S(=O)(=O)c3c[nH]c(C(=O)N4CCCC4)c3)C2)cc1 (centres undefined)	939
O=c1c2c(CO)c(-c3ccccc3)nn2ccn1Cc1ccc(Br)cc1	1010
COc1ccc(N2C(=O)C3N=NN(Cc4nc(-c5ccc6c(c5)OCO6)no4)C3C2=O)cc1 (centres undefined)	911
Cc1cccc(Oc2nccnc2Sc2ccccc2C(=O)N2CCN(c3ccccn3)CC2)c1	761
COc1ccc(N2CCN(C(=O)CN3C(=O)CN(C)C(=O)c4ccccc43)CC2)cc1	624
CCn1cc(C)c(C(=O)O)c1CC(=O)N1CCOCC1	619

From the METLIN SMRT retention time set (Domingo-Almenara et al. 2019)
